# Measurements taken from EP4775208A1, “USE OF PRMT5 INHIBITOR IN TREATMENT OF TUMORS OR CANCERS” (Apeiron Therapeutics (Hong Kong) Ltd., priority 2023, dated 2025).
# System: Human glioma U87-luc cells
# Assay: In vivo efficacy in U87 orthotopic xenograft model (bioluminescence imaging)
# Parameters: species or system BALB/c nude mice
# Settings: for Bioluminescence Signal (photons/sec), Mean: 30 mg/kg, PO, QD, U87-luc orthotopic
# Protocol: V. In Vivo Efficacy of Compounds of the Present Disclosure in U87 Orthotopic Xenograft Models
# Cell Culture: Human glioma U87-luc cells (Caliper-124577) were cultured as monolayers in vitro. The cells were maintained in EMEM supplemented with 10% fetal bovine serum (FBS), 100 U/mL penicillin, and 100 µg/mL streptomycin in an incubator at 37°C with 5% CO2. Routine subculturing was performed twice weekly using trypsin-EDTA. When the cells reached 80-90% confluence and the required cell number was achieved, the cells were harvested, counted, and prepared for inoculation.
# Animals: Female BALB/c nude mice, weighing 18-20 g. A total of 50 mice were obtained (target study size of 24 mice, with an […]). The animals were provided by Beijing Vital River Laboratory Animal Technology Co., Ltd.
# Tumor Inoculation: Prior to cell inoculation, each nude mouse was anesthetized via intraperitoneal injection of 1.25% avertin at a dose of 20 µL/g. The anesthetized mouse was fixed onto a stereotaxic instrument. The scalp was disinfected with 70% ethanol and covered with a sterile drape. A midline longitudinal incision (approximately 1 cm) was made to expose the skull. A small hole was drilled using a cranial drill at the coordinates 2 mm right and 0.5 mm anterior to the bregma. Using a microsyringe, 3 µL of U87-luc cell suspension (3.0×10^5 cells in PBS containing 20% Matrigel) was injected into the hole at a depth of 3.5 mm from the skull surface. The burr hole was sealed with tissue adhesive (or bone wax), the incision was sutured, and the skin was disinfected with povidone-iodine solution. The animals were kept warm on a heating pad during the recovery period and monitored until fully awake before being returned to their cages.
# Analgesia: For analgesia, Meloxicam (3 mg/kg) was injected subcutaneously 30 minutes prior to surgery and 24 hours post-surgery.
# Bioluminescence Imaging: Mice were weighed and administered D-luciferin (150 mg/kg) via intraperitoneal injection. Ten minutes post-injection, the mice were anesthetized using a mixture of oxygen and isoflurane. Once fully anesthetized, the animals were transferred to the IVIS Lumina III in vivo imaging system for detection. Bioluminescence measurements were acquired for all mice at 13 minutes post-injection. Whole-body bioluminescence, including metastatic tumors, was measured and images were captured. Imaging was performed on Day 7 post-inoculation and weekly thereafter following grouping and dosing (5 time points in total). The data are presented as bioluminescence signal values.
# Animal Grouping: Seven days after cell inoculation, 24 mice were selected from the total of 50 mice based on their bioluminescence values. Using an Excel-based stratified randomization procedure, the mice were divided into 3 groups (8 mice per group): the Vehicle group, the 15 mg/kg BID group, and the 30 mg/kg QD group.
# Experimental Endpoint: The experimental endpoint is animal survival.
# Monitoring and Data Analysis: Animals were monitored daily, and the time of death was recorded. […] If an animal's health deteriorated or it became moribund (characterized by significant weight loss >20%, inability to eat or drink normally, difficulty moving, or paralysis), it was considered a mortality event and immediately euthanized via CO2 inhalation.
# The Median Survival Time (MST, days) was calculated for each group. The Increase in Life-Span (ILS) was calculated by comparing the MST of the treatment group to that of the model control group, expressed as a percentage increase over the control group. The calculation is as follows: ILS(%) = (MSTt−MSTv)/MSTv × 100 [formula] Where: • MSTt: Median Survival Time of the treatment group • MSTv: Median Survival Time of the Vehicle group
# Tumor Growth Monitoring: Bioluminescence signal intensity was used to monitor intracranial tumor growth. Bioluminescence imaging was performed once or twice weekly. […]
compound,measurement,setting,value
"CN(C(=O)c1ccc2nc(N)c3cncn3c2c1)[C@@H]1COc2cc(C(F)(F)F)ccc21 [Example 107, (S)-4-amino-N-methy 1-N-(6-(trifluoromethy 1)-2,3-dihydrobenzofuran-3-yl)imidazo[1,5-a]quinoxaline-8-carboxamide]",Tumor Growth Inhibition (TGI) rate,"30 mg/kg once daily (QD) for 28 days, U87MG orthotopic mouse xenograft",exceeding 100%
same,"Bioluminescence Signal (photons/sec), Mean",day 0,5.837E+06 photons/sec
same,"Bioluminescence Signal (photons/sec), Mean",day 7,1.419E+06 photons/sec
same,"Bioluminescence Signal (photons/sec), Mean",day 14,1.930E+06 photons/sec
same,"Bioluminescence Signal (photons/sec), Mean",day 21,1.968E+06 photons/sec
same,"Bioluminescence Signal (photons/sec), Mean",day 28,2.412E+06 photons/sec
